The values below come from patent US4059622A, “Alkanolamine derivatives” (Imperial Chemical Industries Limited, priority 1970, dated 1977).

The target in the first test is T1, cardiac β-receptors (Felis catus, UniProt Q9TST6).
T1 construct: bodyweight of isoprenaline into a chloralose-anaesthetised cat; from tissue; host or cells: heart of the living chloralose-anaesthetised cat (in vivo)
T1 sequence (Q9TST6 whole entry): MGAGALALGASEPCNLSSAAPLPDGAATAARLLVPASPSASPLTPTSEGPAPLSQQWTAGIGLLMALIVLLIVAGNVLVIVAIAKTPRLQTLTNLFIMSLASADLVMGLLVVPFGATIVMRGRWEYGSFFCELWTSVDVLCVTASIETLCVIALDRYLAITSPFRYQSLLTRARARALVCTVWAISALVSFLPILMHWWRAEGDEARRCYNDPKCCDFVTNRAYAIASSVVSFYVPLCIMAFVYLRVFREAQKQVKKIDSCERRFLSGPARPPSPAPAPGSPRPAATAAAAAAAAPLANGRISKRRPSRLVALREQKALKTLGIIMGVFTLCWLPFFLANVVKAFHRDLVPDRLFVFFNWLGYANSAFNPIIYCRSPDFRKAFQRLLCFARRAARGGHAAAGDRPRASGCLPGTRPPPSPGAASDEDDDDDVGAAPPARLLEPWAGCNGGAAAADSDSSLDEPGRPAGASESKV
In words: inhibition of the tachycardia produced by injection of 0.2 μg/kg isoprenaline into a chloralose-anaesthetised cat (β-adrenergic blocking activity). It counts as in vivo. To be noted: cat, read-out: ED50, Compound A. The method, then: The comparison of the β-adrenergic blocking activity of compounds of the present invention with those of the said prior specification may be carried out using a test standard in the art, namely the inhibition of the tachycardia produced by the injection of 0.2 μg. per kg. bodyweight of isoprenaline into a chloralose-anaesthetised cat.
As for `CC(C)NCC(O)COc1ccc(CC(N)=O)cc1` (stereo not shown) [Compound A, R^1 isopropyl, R^2 H, reference compound], the ED50 (commonly the dose that gives a 50% effect, or the effect in half of the subjects) was 0.096 mg/kg.

The same test, now with this note: inhibition of tachycardia by 0.2 μg/kg isoprenaline, chloralose-anaesthetised cat; per kg bodyweight; read-out: 50% inhibitory dose (ED50), β-adrenergic blocking activity.
On to `CC(C)NCC(O)COc1ccccc1CC(N)=O` (stereo not shown) [1-o-carbamoylmethylphenoxy-3-isopropylaminopropan-2-ol, reference compound], for which the ED50 came to 0.481 mg/kg. With `CC(C)NCC(O)COc1ccccc1OCC(N)=O` (stereo not shown) [Compound B, R^1 isopropyl, R^3 H, 1-isopropylamino-3-(o-carbamoylmethoxyphenoxy)propan-2-ol], the ED50 is 0.058 mg/kg. Same read-out and setting: with `CC(=O)Nc1ccc(OCC(O)CNC(C)C)cc1` (stereo not shown) [practolol, reference compound] the figure was about 0.2 mg/kg.

The test is the same for the next values; noted with them: ortho-substituted compounds of the invention; chloralose-anaesthetised cat, isoprenaline 0.2 μg/kg; read-out: ED50, Compound B.
For `CC(C)NCC(O)COc1ccccc1OCC(N)=O` (stereo not shown) [Compound B, R^1 isopropyl, R^3 H, 1-isopropylamino-3-(o-carbamoylmethoxyphenoxy)propan-2-ol], the ED50 was found to be 0.058 mg/kg. On the same count and under the same terms, with `C=CCNC(=O)COc1ccccc1OCC(O)CNC(C)C` (stereo not shown) [Compound B, R^1 isopropyl, R^3 allyl, 1-isopropylamino-3-(o-N-allylcarbamoylmethoxyphenoxy)propan-2-ol] the figure was 0.034 mg/kg; with `CC(C)NCC(O)COc1ccccc1OCC(=O)NC(C)C` (stereo not shown) [Compound B, R^1 isopropyl, R^3 isopropyl, 1-isopropylamino-3-(o-N-isopropylcarbamoylmethoxyphenoxy)propan-2-ol], 0.2 mg/kg. On the same count and under the same terms, with `CNC(=O)COc1ccccc1OCC(O)CNC(C)C` (stereo not shown) [Compound B, R^1 isopropyl, R^3 methyl, 1-isopropylamino-3-(o-N-methylcarbamoylmethoxyphenoxy)propan-2-ol] the figure was 0.02 mg/kg; with `CCCCNC(=O)COc1ccccc1OCC(O)CNC(C)C` (stereo not shown) [Compound B, R^1 isopropyl, R^3 n-butyl], 0.143 mg/kg; with `CC(C)(C)NCC(O)COc1ccccc1OCC(N)=O` (stereo not shown) [Compound B, R^1 t-butyl, R^3 H, 1t-butylamino-3-(o-carbamoylmethoxyphenoxy)propan-2-ol], 0.011 mg/kg.

The same test, now with this note: other highly active compounds of the invention; chloralose-anaesthetised cat, isoprenaline 0.2 μg/kg; read-out: ED50.
On to `CNC(=O)COc1ccccc1OCC(O)CNC(C)(C)CO` (stereo not shown), for which the ED50 was 0.03 mg/kg.

Take `CC(C)NCC(O)COc1ccccc1OCC(=O)NCCO` (stereo not drawn) [R^1 isopropyl, R^3 2-hydroxyethyl, 1-o-(N-β-hydroxyethylcarbamoylmethoxy)phenoxy-3-isopropylamino-2-propanol]: the ED50 worked out at 0.009 mg/kg. As for `COCCNC(=O)COc1ccccc1OCC(O)CNC(C)C` (stereo not drawn) [R^1 isopropyl, R^3 2-methoxyethyl, 1-o-(N-β-methoxyethylcarbamoylmethoxy)phenoxy-3-isopropylamino-2-propanol], the 50% effective dose (ED50) worked out at 0.027 mg/kg. On the same count and under the same terms, with `CC(C)NCC(O)COc1ccccc1OCC(=O)NCCCO` (stereo not shown) [R^1 isopropyl, R^3 3-hydroxypropyl, 1-o-(N-γ-hydroxypropylcarbamoylmethoxy)phenoxy-3-isopropylamino-2-propanol] the figure was 0.047 mg/kg; with `CCNC(=O)COc1ccccc1OCC(O)CNC(C)C` (stereo not shown) [R^1 isopropyl, R^3 ethyl, 1-isopropylamino-3-(o-N-ethylcarbamoylmethoxyphenoxy)propan-2-ol], 0.068 mg/kg. As to `CC(C)(C)NCC(O)COc1ccccc1OCC(=O)NCCO` (stereo not drawn) [R^1 t-butyl, R^3 2-hydroxyethyl, 1-o-(N-β-hydroxyethylcarbamoylmethoxy)phenoxy-3-t-butylaminopropan-2-ol], the ED50 was found to be 0.04 mg/kg. The same measure, in the same setting: with `CC(C)(C)NCC(O)COc1ccccc1OCC(=O)NCCCO` (stereo not shown) [R^1 t-butyl, R^3 3-hydroxypropyl, 1-o-(N-γ-hydroxypropylcarbamoyl-methoxy)phenoxy-3-t-butylamino-2-propanol] the figure was 0.074 mg/kg; with `C=CCNC(=O)COc1ccccc1OCC(O)CNC(C)(C)C` (stereo not shown) [R^1 t-butyl, R^3 allyl, 1-t-butylamino-3-(o-N-allylcarbamoylmethoxyphenoxy)propan-2-ol], 0.027 mg/kg; with `CCNC(=O)COc1ccccc1OCC(O)CNC(C)(C)C` (stereo not shown) [R^1 t-butyl, R^3 ethyl, 1-t-butylamino-3-(o-N-ethylcarbamoylmethoxyphenoxy)propan-2-ol], 0.018 mg/kg. The same measure, in the same setting: as for `CNC(=O)COc1ccccc1OCC(O)CNC(C)(C)C` (stereo not shown) [R^1 t-butyl, R^3 methyl, 1-t-butylamino-3-(o-N-methylcarbamoylmethoxyphenoxy)propan-2-ol], the figure is 0.014 mg/kg.

Still in this test, the particulars now being: para-substituted prior-art compounds; chloralose-anaesthetised cat, isoprenaline 0.2 μg/kg; read-out: ED50, Compound A.
Consider `C=CCNC(=O)Cc1ccc(OCC(O)CNC(C)C)cc1` (stereo not shown) [Compound A, R^1 isopropyl, R^2 allyl, reference compound], for which the ED50 turned out to be 1.47 mg/kg. Take `CC(C)NCC(O)COc1ccc(CC(=O)NC(C)C)cc1` (stereo not shown) [Compound A, R^1 isopropyl, R^2 isopropyl, reference compound]: the ED50 is 0.225 mg/kg. Consider `CNC(=O)Cc1ccc(OCC(O)CNC(C)C)cc1` (stereo not shown) [Compound A, R^1 isopropyl, R^2 methyl, reference compound], for which the ED50 was determined as 0.335 mg/kg.

In the case of `CCCCNC(=O)Cc1ccc(OCC(O)CNC(C)C)cc1` (stereo not shown) [Compound A, R^1 isopropyl, R^2 n-butyl, reference compound], the ED50 amounted to 0.606 mg/kg. With `CC(C)(C)NCC(O)COc1ccc(CC(N)=O)cc1` (stereo not shown) [Compound A, R^1 t-butyl, R^2 H, reference compound], the ED50 worked out at 0.136 mg/kg.
